Experimental data from patent US20090137493A1, “Inhibition of tumor metastases using protein kinase C (PKC) inhibitors” (priority 2007, published 2009).
Bridges are numbered along the chain shown (N, C = ends). Where no end group is shown, it is not given here.

Assays:
CXCR4 chemokine receptor = assay: CXCR4 expression on the surface of tumor cells from treated animals; format: in vivo; conditions: cells from primary tumors of treated animals, versus TAT, FIG. 10B
Excerpt: FIG. 10B is a bar graph showing the relative expression levels of CXCR4 chemokine receptor on the surface of tumor cells from animals treated with the TAT carrier peptide (TAT) or the αV5-3-TAT peptide (Alpha inhibitor).
(§1) Cells from primary tumors in animals treated with the αPKC inhibitor were also isolated and assayed for levels of CXCR4 (FIG. 10B) and levels of matrix metalloproteinase 2 (MMP2) activity (FIG. 10C).

4T1 cells = assay: Wound healing (migration) assay, 4T1; format: cell-based, mouse; conditions: peptide 1 uM, re-applied every 2 h for 8 h
Protocol: FIGS. 16A-16D are micrographs showing the efficacy of TAT carrier peptide (TAT; FIG. 16A), αV5-3-TAT peptide (Alpha; FIG. 16B), βIIV5-3 peptide (Beta2; FIG. 16C), and εV1-2 (Epsilon; FIG. 16D) on 4T1 cell migration.
To investigate the role of PKC inhibitors in reducing the migration of tumor cells, in vitro migration assays were performed using MDA-MB-231 breast cancer cells (FIGS. 12A-12D), MCF-7 breast cancer cell (FIGS. 13A-13D), JC cells (FIGS. 15A-15D), and 4T1 cells (FIGS. 16A-16D), in the presence of TAT carrier peptide (TAT), αV5-3-TAT peptide (Alpha), βIIV5-3 peptide (Beta2), or εV1-2 peptide (Epsilon).
Wound healing assay: Human or mouse breast cancer cell lines were grown in 6-well plates until about 90% confluent. Cells were then grown in serum free media overnight, before media was changed to media +1% FBS and peptide PKC inhibitors added (1 uM), at the same time a pipette tip was drawn across the cell layer to create a scrape ‘wound’. PKC inhibitors were re-applied every 2 h for a total of 8 h, before cells were left for a further 12 h and then the scrape was examined under phase contrast microscopy.

tumor cells = assay: Adhesion of intravenously injected tumor cells to the lungs (imaging); format: in vivo, mice; conditions: for adhesion of tumor cells in the lung, imaging: versus TAT
Protocol: FIG. 7A is a bar graph showing the affect of αV5-3-TAT peptide on the adhesion of tumor cells into the lungs. Animals were treated with TAT carrier peptide (TAT), or αV5-3-TAT peptide (PKC alpha inhibitor), initiated two days before, and continued for 12 days following, injection of tumor cells intravenously;
FIGS. 7B-7C are images of mice two days after treatment as described in FIG. 7A. The mice in FIG. 7B were treated with TAT and the mice in FIG. 7C treated with αV5-3-TAT peptide.
FIGS. 7D-7E are images of mice following five days of treatment as described in FIG. 7A. The mice in FIG. 7D were treated TAT (control) and the mice in FIG. 7E were treated with αV5-3-TAT peptide (PKC a inhibitor).
For example, FIG. 7A is a bar graph showing the affect of αV5-3-TAT peptide on the adhesion of tumor cells into the lungs. In this experiment, animals were treated with TAT carrier peptide (TAT), or αV5-3-TAT peptide (PKC alpha inhibitor), for two days before injection of tumor cells intravenously. Adhesion of tumor cells to the lung was reduced in animals treated with the PKC alpha inhibitor compared to control animals.
FIGS. 7B and 7C are images of representative mice two days after treatment. The mice in FIG. 7B were treated with TAT and the mice in FIG. 7C treated with αV5-3-TAT peptide. […] FIGS. 7D-7E are images of mice following five days of treatment. The mice in FIG. 7D were treated TAT (control) and the mice in FIG. 7E were treated with αV5-3-TAT peptide (PKC a inhibitor).

[1] = tested on: matrix metalloproteinase 2 (MMP2); assay: MMP2 activity in tumor cells from treated animals; format: in vivo; conditions: cells from primary tumors of treated animals, versus saline or TAT, FIG. 10C
Excerpt: FIG. 10C is a bar graph showing the relative levels of matrix metalloproteinase 2 (MMP2) activity in tumor cells from animals treated with saline or TAT (untreated) or the αV5-3-TAT peptide (aV5-3).
as §1

4T1 tumor cells = assay: Growth rate of 4T1 tumor cells in vitro; format: cell-based, mouse; conditions: doses of 0, 1, 5 and 10 μM, compared to TAT carrier peptide control
Protocol: FIGS. 6B-6C are bar graphs showing the affect of the αV5-3-TAT peptide on growth rate of JC tumor cells (FIG. 6B) and 4T1 tumor cells (FIG. 6C) in vitro. The cells treated with the TAT carrier peptide (TAT) or with αV5-3-TAT peptide (PKC alpha inhibitor), at doses of 0, 1, 5, and 10 μM.
To determine if the effects observed with the α and βIIPKC peptide inhibitors was due to a decrease in metastasis as opposed to a decrease in primary tumor growth, animals injected with 4T1 tumor cells were treated with saline, the αV5-3-TAT conjugate peptide (αPKC), or the βIIV5-3-TAT conjugate peptide (βPKC) and the number of tumors cells at the primary site of injection were determined.

[2] = Serum levels of liver enzymes AST and ALT in treated animals; format: in vivo
Excerpt: FIGS. 11A-11B are bar graphs showing the relative serum levels of liver enzymes aspartate transaminase (AST; FIG. 11A) and alanine transaminase (ALT; FIG. 11B) in animals treated with saline or TAT (untreated) or the αV5-3-TAT peptide (aV5-3). FIGS. 11C-11E are bar graphs showing the relative serum levels of white blood cells (FIG. 11C), lymphocytes (FIG. 11D), and neutrophils (FIG. 11E).

beta-1 integrin = assay: Beta-1 integrin expression in cells from primary tumors; format: in vivo; conditions: data not shown
Excerpt: FIG. 10A is a bar graph showing the relative expression levels of beta 1 (βI) integrin on the surface of tumor cells from animals with metastasis (Mets) or no metastasis (No mets).
To better understand the role of PKC inhibitors in reducing metastasis, tumor cells, cells from primary tumors in animals with metastasis (Mets) and without metastasis (No mets) were isolated and assayed for levels of beta-1 integrin (FIG. 10A). The levels of beta-1 integrin were reduced about 50% in animals with no metastasis.

YGRKKRRQRRR-CC-QLVIAN (YGRKKRRQRRRCCQLVIAN; disulfide 12-13 (inferred)) [αV5-3-TAT]
decrease of relative expression levels of CXCR4 chemokine receptor on the surface of tumor cells (CXCR4 chemokine receptor): 4-5 fold
migration of 4T1 cells in vitro (4T1 cells): did not affect
adhesion of tumor cells in the lung, imaging (tumor cells; five days of treatment, FIGS. 7D-7E): reduced adhesion
adhesion of tumor cells to the lung (tumor cells; treatment from two days before intravenous injection of tumor cells, FIG. 7A, versus TAT control): reduced
adhesion of tumor cells in the lung, imaging (tumor cells; two days after treatment, FIGS. 7B-7C): reduced adhesion
decrease of relative levels of MMP2 activity in tumor cells [1]: about 30%
inhibition of growth of 4T1 tumor cells in vitro (4T1 tumor cells): does not substantially inhibit
decrease of relative serum level of aspartate transaminase (AST) ([2]; treated animals versus saline or TAT, FIG. 11A): about 5 fold
decrease of relative serum level of alanine transaminase (ALT) ([2]; treated animals versus saline or TAT, FIG. 11B): 4-5 fold
serum AST/ALT levels (marker of damage or toxicity of the liver) ([2]; tumor-bearing treated animals): reversed abnormally elevated level of serum AST/ALT levels (a marker of damage or toxicity of the liver) to the normal range
beta-1 integrin expression (beta-1 integrin): tended to decrease beta-1 integrin expression but the amount was not statistically significant
